# Source: patent US11840497B2, “4-(p-quinonyl)-2-hydroxybutanamide derivatives for treatment of mitochondrial diseases” (PTC Therapeutics, Inc., priority 2007, dated 2023)
# What was measured:
# Assay type in all cases: cell-based
# [1] = tested on: Human dermal fibroblasts from Friedreich's Ataxia patients; assay: Rescue of BSO-stressed FRDA fibroblasts (Example A); details: FRDA fibroblasts GM04078, 1 mM BSO, read-out: protection against FRDA, EC50
# Method: Test samples, 4 reference compounds (idebenone, decylubiquinone, Trolox and α-tocopherol acetate), and solvent controls were tested for their ability to rescue FRDA fibroblasts stressed by addition of L-buthionine (S,R)-sulfoximine (BSO), as described in Jauslin et al., Hum. Mol. Genet. […] Mol. Genet. […] This specific BSO-mediated cell death can be prevented by administration of antioxidants or molecules involved in the antioxidant pathway, such as α-tocopherol, selenium, or small molecule glutathione peroxidase mimetics. However, antioxidants differ in their potency, i.e. the concentration at which they are able to rescue BSO-stressed FRDA fibroblasts.
# Fetal Calf Serum was obtained from PAA Laboratories. Basic fibroblast growth factor and epidermal growth factor were purchased from PeproTech. Penicillin-streptomycin-glutamine mix, L-buthionine (S,R)-sulfoximine, (+)-α-tocopherol acetate, decylubiquinone, and insulin from bovine pancreas were purchased from Sigma. Trolox (6-Hydroxy-2,5,7,8-tetramethylchroman-2-carboxylic acid) was obtained from Fluka. Idebenone was obtained from Chemo Iberica. Calcein AM was purchased from Molecular Probes. Cell culture medium was made by combining 125 ml M199 EBS, 50 ml Fetal Calf Serum, 100 U/ml penicillin, 100 μg/ml streptomycin, 2 mM glutamine, 10 μg/ml insulin, 10 ng/ml EGF, and 10 ng/ml bFGF; MEM EBS was added to make the volume up to 500 ml. […] During the course of the experiments, this solution was stored at +4° C. The cells were obtained from the Coriell Cell Repositories (Camden, NJ; repository number GM04078) and grown in 10 cm tissue culture plates. Every third day, they were split at a 1:3 ratio.
# The test samples were supplied in 1.5 ml glass vials. […] Once dissolved, they were stored at −20° C. Reference antioxidants (idebenone, decylubiquinone, α-tocopherol acetate and trolox) were dissolved in DMSO.
# Test samples were screened according to the following protocol: A culture with FRDA fibroblasts was started from a 1 ml vial with approximately 500,000 cells stored in liquid nitrogen. […] Once confluent, fibroblasts were harvested. […] The remaining cells were distributed in 10 cm cell culture plates (500,000 cells/plate) for propagation. The plates were incubated overnight at 37° C. in a atmosphere with 95% humidity and 5% CO2 to allow attachment of the cells to the culture plate.
# MTP medium (243 μl) was added to a well of the microtiter plate. […] Serial dilutions from the master solution were made. The period between the single dilution steps was kept as short as possible (generally less than 1 second).
# Plates were kept overnight in the cell culture incubator. The next day, 10 μl of a 10 mM BSO solution were added to the wells, resulting in a 1 mM final BSO concentration. Forty-eight hours later, three plates were examined under a phase-contrast microscope to verify that the cells in the 0% control (wells E1-H1) were clearly dead. The medium from all plates was discarded, and the remaining liquid was removed by gently tapping the plate inversed onto a paper towel.
# The plates were incubated for 50-70 minutes at room temperature. After that time the PBS was discarded, the plate gently tapped on a paper towel and fluorescence (excitation/emission wavelengths of 485 nm and 525 nm, respectively) was read on a Gemini fluorescence reader. Data was imported into Microsoft Excel (EXCEL is a registered trademark of Microsoft Corporation for a spreadsheet program) and used to calculate the EC50 concentration for each compound.
# The compounds were tested three times, i.e., the experiment was performed three times, the passage number of the cells increasing by one with every repetition.
# The viability of non-BSO treated fibroblasts was set as 100%, and the viability of the BSO- and compound-treated cells was calculated as relative to this value.
# [2] = tested on: human dermal fibroblasts from Huntington's patients; assay: Rescue of BSO-stressed fibroblasts from Huntington's patients (Example B); details: Fibroblast, Huntington's fibroblasts GM 04281, screen as Example A, read-out: protection against Hungtington's, EC50
# Method: The compounds were tested for their ability to rescue human dermal fibroblasts from Huntington's patients from oxidative stress.
# [3] = tested on: human dermal fibroblasts from Parkinson's Disease patients; assay: Rescue of BSO-stressed fibroblasts from Parkinson's Disease patients (Example D); details: Fibroblast, PD fibroblasts AG20439, screen as Example A, read-out: protection against PD, EC50
# Method: The compounds were tested for their ability to rescue human dermal fibroblasts from Parkinson's Disease patients from oxidative stress.
# [4] = tested on: human dermal fibroblasts from CoQ10 deficient patients; assay: Rescue of stressed fibroblasts from CoQ10 deficient patients (Example E); details: Fibroblast, fibroblasts harboring a CoQ2 mutation, screen similar to Example A, read-out: protection against CoQ10 deficiency, EC50
# Method: Compounds of the invention were tested using a screen similar to the one described in Example A, but substituting FRDA cells with cells obtained from CoQ10 deficient patients harboring a CoQ2 mutation.
# [5] = tested on: human dermal fibroblasts from LHON patients; assay: Rescue of BSO-stressed fibroblasts from LHON patients (Example C); details: Fibroblast, LHON fibroblasts GM03858, screen as Example A, read-out: protection against LHON, EC50
# Method: The compounds were tested for their ability to rescue human dermal fibroblasts from LHON patients from oxidative stress.
smiles,measurement,setting,value
"CC1=C(C)C(=O)C(CCC(C)(O)C(=O)NCCCN(C)C)=C(C)C1=O (stereo not drawn) [Example 40, N-(3-(Dimethylamino)propyl)-2-hydroxy-2-methyl-4-(2,4,5-trimethyl-3,6-dioxocyclohexa-1,4-dienyl)butanamide]",EC50,[1],< 100 nM
same,EC50,[2],< 100 nM
same,EC50,[3],< 100 nM
"CC1=C(C)C(=O)C(CC[C@](C)(O)C(=O)NCCO)=C(C)C1=O [Example 28, (S)-2-hydroxy-N-(2-hydroxyethyl)-2-methyl-4-(2,4,5-trimethyl-3,6-dioxocyclohexa-1,4-dienyl)butanamide]",EC50,[1],< 100 nM
same,EC50,[2],< 100 nM
same,EC50,[3],< 100 nM
"CC1=C(C)C(=O)C(CCC(C)(O)C(=O)NCCc2ccccc2Cl)=C(C)C1=O (stereo not drawn) [N-(2-chlorophenethyl)-2-hydroxy-2-methyl-4-(2,4,5-trimethyl-3,6-dioxocyclohexa-1,4-dienyl)butanamide]",EC50,[1],< 100 nM
same,EC50,[4],< 100 nM
"CC(=O)N1CCN(C(=O)C(C)(O)CCC2=C(C)C(=O)C(C)=C(C)C2=O)CC1 (stereo not drawn) [2-(4-(4-acetylpiperazin-1-yl)-3-hydroxy-3-methyl-4-oxobutyl)-3,5,6-trimethylcyclohexa-2,5-diene-1,4-dione]",EC50,[1],< 100 nM
same,EC50,[2],< 100 nM
same,EC50,[5],< 100 nM
same,EC50,[4],< 100 nM
"CC1=C(C)C(=O)C(CCC(C)(O)C(=O)NC(C)C)=C(C)C1=O (stereo not drawn) [2-hydroxy-N-isopropyl-2-methyl-4-(2,4,5-trimethyl-3,6-dioxocyclohexa-1,4-dienyl)butanamide]",EC50,[3],< 100 nM
"CC1=C(C)C(=O)C(CCC(C)(O)C(=O)N2CCNCC2)=C(C)C1=O (stereo not drawn) [2-(3-hydroxy-3-methyl-4-oxo-4-(piperazin-1-yl)butyl)-3,5,6-trimethylcyclohexa-2,5-diene-1,4-dione]",EC50,[1],< 100 nM
same,EC50,[4],< 100 nM
"CCCCCCNC(=O)C(C)(O)CCC1=C(C)C(=O)C(C)=C(C)C1=O (stereo not drawn) [Example 43, N-hexyl-2-hydroxy-2-methyl-4-(2,4,5-trimethyl-3,6-dioxocyclohexa-1,4-dienyl)butanamide]",EC50,[5],< 100 nM
same,EC50,[4],< 100 nM
"CC1=C(C)C(=O)C(CCC(C)(O)C(=O)NCc2ccccc2F)=C(C)C1=O (stereo not drawn) [N-(2-fluorobenzyl)-2-hydroxy-2-methyl-4-(2,4,5-trimethyl-3,6-dioxocyclohexa-1,4-dienyl)butanamide]",EC50,[1],< 100 nM
same,EC50,[2],< 100 nM
same,EC50,[5],< 100 nM
"CC1=C(C)C(=O)C(CCC(C)(O)C(=O)NCCCCO)=C(C)C1=O (stereo not drawn) [Example 17, 2-Hydroxy-N-(4-hydroxybutyl)-2-methyl-4-(2,4,5-trimethyl-3,6-dioxocyclohexa-1,4-dienyl)butanamide]",EC50,[1],< 100 nM
same,EC50,[2],< 100 nM
same,EC50,[5],< 100 nM
"CC1=C(C)C(=O)C(CCC(C)(O)C(=O)NCc2cccnc2)=C(C)C1=O (stereo not drawn) [2-hydroxy-2-methyl-N-(pyridin-3-ylmethyl)-4-(2,4,5-trimethyl-3,6-dioxocyclohexa-1,4-dienyl)butanamide]",EC50,[5],< 100 nM
same,EC50,[4],< 100 nM
"CC1=C(C)C(=O)C(CC[C@@](C)(O)C(=O)NCCO)=C(C)C1=O [Example 24, (R)-2-Hydroxy-N-(2-hydroxyethyl)-2-methyl-4-(2,4,5-trimethyl-3,6-dioxocyclohexa-1,4-dienyl)butanamide]",EC50,[1],< 100 nM
same,EC50,[2],< 100 nM
same,EC50,[3],< 100 nM
"CC1=C(C)C(=O)C(CCC(C)(O)C(=O)NCc2ccccc2Cl)=C(C)C1=O (stereo not drawn) [N-(2-chlorobenzyl)-2-hydroxy-2-methyl-4-(2,4,5-trimethyl-3,6-dioxocyclohexa-1,4-dienyl)butanamide]",EC50,[1],< 100 nM
same,EC50,[2],< 100 nM
same,EC50,[5],< 100 nM
"CC1=C(C)C(=O)C(CCC(C)(O)C(=O)NCc2cccc(F)c2)=C(C)C1=O (stereo not drawn) [N-(3-fluorobenzyl)-2-hydroxy-2-methyl-4-(2,4,5-trimethyl-3,6-dioxocyclohexa-1,4-dienyl)butanamide]",EC50,[1],< 100 nM
same,EC50,[2],< 100 nM
same,EC50,[5],< 100 nM
"CC1=C(C)C(=O)C(CCC(C)(O)C(=O)Nc2ccc(F)cc2)=C(C)C1=O (stereo not drawn) [N-(4-fluorophenyl)-2-hydroxy-2-methyl-4-(2,4,5-trimethyl-3,6-dioxocyclohexa-1,4-dienyl)butanamide]",EC50,[1],< 100 nM
same,EC50,[2],< 100 nM
same,EC50,[5],< 100 nM
same,EC50,[4],< 100 nM
"CC1=C(C)C(=O)C(CCC(C)(O)C(=O)NCCc2ccc(Cl)cc2)=C(C)C1=O (stereo not drawn) [N-(4-chlorophenethyl)-2-hydroxy-2-methyl-4-(2,4,5-trimethyl-3,6-dioxocyclohexa-1,4-dienyl)butanamide]",EC50,[1],< 100 nM
same,EC50,[2],< 100 nM
same,EC50,[5],< 100 nM
same,EC50,[4],< 100 nM
"CC1=C(C)C(=O)C(CCC(C)(O)C(N)=O)=C(C)C1=O (stereo not drawn) [Example 16, 2-Hydroxy-2-methyl-4-(2,4,5-trimethyl-3,6-dioxocyclohexa-1,4-dienyl)butanamide]",EC50,[1],< 100 nM
same,EC50,[2],< 100 nM
same,EC50,[5],< 100 nM
same,EC50,[4],< 100 nM
"CC1=C(C)C(=O)C(CCC(C)(O)C(=O)NCc2ccc(Cl)cc2)=C(C)C1=O (stereo not drawn) [N-(4-chlorobenzyl)-2-hydroxy-2-methyl-4-(2,4,5-trimethyl-3,6-dioxocyclohexa-1,4-dienyl)butanamide]",EC50,[1],< 100 nM
same,EC50,[2],< 100 nM
same,EC50,[5],< 100 nM
"CC1=C(C)C(=O)C(CCC(C)(O)C(=O)N2CCN(C(=O)OC(C)(C)C)CC2)=C(C)C1=O (stereo not drawn) [tert-butyl 4-(2-hydroxy-2-methyl-4-(2,4,5-trimethyl-3,6-dioxocyclohexa-1,4-dienyl)butanoyl)piperazine-1-carboxylate]",EC50,[4],< 100 nM
"CC1=C(C)C(=O)C(CC[C@](C)(O)C(N)=O)=C(C)C1=O [(S)-2-hydroxy-2-methyl-4-(2,4,5-trimethyl-3,6-dioxocyclohexa-1,4-dienyl)butanamide]",EC50,[1],< 100 nM
same,EC50,[2],< 100 nM
same,EC50,[5],< 100 nM
same,EC50,[4],< 100 nM
"CC1=C(C)C(=O)C(CC[C@@](C)(O)C(N)=O)=C(C)C1=O [(R)-2-hydroxy-2-methyl-4-(2,4,5-trimethyl-3,6-dioxocyclohexa-1,4-dienyl)butanamide]",EC50,[1],< 100 nM
same,EC50,[2],< 100 nM
same,EC50,[5],< 100 nM
"CC1=C(C)C(=O)C(CCC(C)(O)C(=O)NCCc2cccc(Cl)c2)=C(C)C1=O (stereo not drawn) [N-(3-chlorophenethyl)-2-hydroxy-2-methyl-4-(2,4,5-trimethyl-3,6-dioxocyclohexa-1,4-dienyl)butanamide]",EC50,[1],< 100 nM
same,EC50,[2],< 100 nM
same,EC50,[5],< 100 nM
"CC1=C(C)C(=O)C(CCC(C)(O)C(=O)NCCCn2ccnc2)=C(C)C1=O (stereo not drawn) [Example 23, N-(3-(1H-imidazol-1-yl)propyl)-2-hydroxy-2-methyl-4-(2,4,5-trimethyl-3,6-dioxocyclohexa-1,4-dienyl)butanamide]",EC50,[1],< 100 nM
same,EC50,[2],< 100 nM
same,EC50,[3],< 100 nM
